Values joined by “and” are separate entries in the source; they are usually repeats but may differ in a detail not shown here. Identical values can stand only once. Like-named read-outs stand apart in the source and are kept apart here.
Columns and labels:
rat tail-flick test = assay type: in vivo; conditions: for tail-flick: 20 mg/kg i.p.
Procedure: (§1) The analgesic action was detected in mouse, rat, guinea pig and dog. The mouse was subjected to hot plate and writhing tests; the rat to tail-flick and paw-pressure tests; the guinea pig to paw-pressure test only; the dog to the test described by Vainio et al. [J. Vet. Pharmacol. Ther., 12, 225-231 (1989)] using an electric stimulation. Consequently, the claimed compounds were tested with pain being induced by stimuli of different nature: thermal (hot plate and tail flick), chemical (writhing by acetic acid), mechanical (paw pressure) and electrical (cutaneous stimulation).
(§2) As already mentioned, the claimed products were assayed also in rat by the paw-pressure and tail-flick tests.
(§3) Both tests were carried out with the max. doses not impairing the rats normal behaviour. […] The painful stimulus utilized in the paw-pressure test involved the animal consciousness to a much greater extent than the stimulus used in the tail-flick test, in fact, the type and anatomic localization of the latter mainly involved a spinal response.
(§4) Both tests on rats were carried out with the max. doses not altering the behaviour of the treated animals.
The test was performed using th

[1] = assay type: in vivo, mouse
Procedure: as §1
(§5) Potency, efficacy and toxicity of SM21, PG9 and SM32 in comparison with
(§6) four principal reference analgesic drugs tested in mouse. As analgesic

[2] = mouse rota-rod test (16 r.p.m.)
From the text: All products tested to detect their antinociceptive activity had been previously tested by the rota-rod test to determine their maximum utilizable dose in analgesic tests. In fact, by this test it is possible to determine the highest dose of drug not impairing the normal performance of animals in a test that simultaneously evaluates motor coordination, equilibrium, resistance to fatigue, and muscle strength. This test is meant to evaluate the capability of mice to stay balanced on a rotating rod [cf. Vaught et al., Neuropharmacology, 24 (3) 211-216 (1985)].
The calculated doses were those used in the two analgesic tests on mice.

rat paw-pressure test = assay type: in vivo; conditions: for paw-pressure: 20 mg/kg i.p.
Procedure: as §1, §2, §3, §4

[3] = mouse acetic acid writhing test; assay type: in vivo
Procedure: as §1
The claimed molecules, chosen as examples, were also assayed in mice by the writhing test (Table 4). The test is meant to evaluate the products capability to prevent mice writhes ensuing abdominal pains caused by i.p. injection of a 0.6% aqueous solution of acetic acid.
Acetic acid solution = 0.6% v/v.

in vivo = conditions: mouse, sc
From the text: as §5, §6

[4] = tested on: presynaptic muscarinic autoreceptor; conditions: cited from earlier work

CCC(Sc1ccccc1)C(=O)O[C@H]1C[C@H]2CC[C@@H](C1)N2C (stereo partly drawn) [SM-32, 3α-Tropanyl 2-(phenylthio)-butyrate]
activity in tail-flick test, in words (rat tail-flick test): active | tail-flick (rat tail-flick test; 15 min after treatment): 3.1 ± 0.5 s | tail-flick (rat tail-flick test; 30 min after treatment): 4.7 ± 0.6 s | tail-flick (rat tail-flick test; 45 min after treatment): 4.3 ± 0.5 s | ANALGESIC ACTIVITY (degree of analgesia, latency on hot plate) ([1]; max. dose not affecting mice behaviour): ++++ (Latency above 35" ++++-) | analgesic effect (AUC up to 45 min) compared with reference compounds ([1]; mouse hot plate, FIG. 5, s.c.): more active than the reference compounds | Efficacy as analgesic (Morphine = 100), AUC (Area Under Curve) ([1]; mouse, in vivo): 120 | Efficacy as analgesic (Morphine = 100), M.E. (Maximum Analgesic Effect) ([1]; mouse, in vivo): 107 | analgesic effect (AUC up to 45 min) compared with morphine ([1]; mouse, in vivo, ip): only slightly less active than morphine | hot-plate latency ([1]; mouse, 35 mg/kg i.p., 15 min after treatment): 35.5 ± 3.0 s | hot-plate latency ([1]; mouse, 35 mg/kg i.p., 30 min after treatment): 33.5 ± 2.6 s | hot-plate latency ([1]; mouse, 35 mg/kg i.p., 45 min after treatment): 24.4 ± 1.9 s | hot-plate latency ([1]; mouse, 35 mg/kg s.c., 15 min after treatment): 38.7 ± 3.5 s | hot-plate latency ([1]; mouse, 35 mg/kg s.c., 30 min after treatment): 36.4 ± 3.2 s | hot-plate latency ([1]; mouse, 35 mg/kg s.c., 45 min after treatment): 25.7 ± 2.9 s | rota-rod performance (number of falls in 30 s) ([2]; 40 mg/kg s.c., 15 min after treatment): 1.2 ± 0.6 falls in 30 s | rota-rod performance (number of falls in 30 s) ([2]; 40 mg/kg s.c., 30 min after treatment): 1.4 ± 0.3 falls in 30 s | rota-rod performance (number of falls in 30 s) ([2]; 40 mg/kg s.c., 45 min after treatment): 1.2 ± 0.4 falls in 30 s | rota-rod performance (number of falls in 30 s) ([2]; 45 mg/kg s.c., 15 min after treatment): 2.0 ± 0.3 falls in 30 s | rota-rod performance (number of falls in 30 s) ([2]; 45 mg/kg s.c., 30 min after treatment): 2.3 ± 0.3 falls in 30 s | rota-rod performance (number of falls in 30 s) ([2]; 45 mg/kg s.c., 45 min after treatment): 2.0 ± 0.5 falls in 30 s | rota-rod performance (number of falls in 30 s) ([2]; 50 mg/kg s.c., 15 min after treatment): 1.8 ± 0.4 falls in 30 s | rota-rod performance (number of falls in 30 s) ([2]; 50 mg/kg s.c., 30 min after treatment): 2.6 ± 0.6 falls in 30 s | rota-rod performance (number of falls in 30 s) ([2]; 50 mg/kg s.c., 45 min after treatment): 2.6 ± 0.5 falls in 30 s | activity in paw-pressure test, in words (rat paw-pressure test): almost equivalent analgesia | paw-pressure (rat paw-pressure test; 15 min after treatment): 86.2 ± 4.0 g | paw-pressure (rat paw-pressure test; 30 min after treatment): 92.0 ± 6.1 g | paw-pressure (rat paw-pressure test; 45 min after treatment): 69.0 ± 4.8 g | efficacy in writhing test, in words ([3]; mouse): less efficacious than ketorolac, are more efficacious than morphine | number of writhes ([3]; mouse, 35 mg/kg s.c.): 5.5 ± 2.1 | Efficacy as analgesic (Morphine = 100) ([3]; mouse, writhing, 35 mg/kg s.c.): 111 | percent inhibition ([3]; mouse, writhing, 35 mg/kg s.c.): 83.4% | ED50 ([3]; sc, mouse writhing): 15.9 mg/kg and 35.7 µmol/kg | LD50 (in vivo): 584 µmol/kg

CCCCN1CCCCC1C(=O)Nc1c(C)cccc1C (centres unmarked) [bupivacaine]
selectivity and efficacy as antagonists of the presynaptic muscarinic autoreceptor [4]: little selective as well as little efficacious
